Experimental data: ChEMBL document CHEMBL1212786 (Antimicrob Agents Chemother, 2010)

Assays:
[1] = tested on: Hepatitis C virus; test: microbe, parasite or virus in culture; details: Huh-7, 120 h
Description: Antiviral activity against Hepatitis C virus infected in human Huh7ET cells assessed as inhibition of viral replication after 120 hrs by RT-PCR analysis

[2] = Cmax in monkey at 1 mg/kg, iv after 24 hrs by LC/MS/MS analysis; assay type: ADME, organism-based, Macaca mulatta; design: dose 1 mg/kg, route intravenous; details: rhesus monkey, in vivo
[3] = AUC (2 to 24 hrs) in Sprague-Dawley rat whole blood at 30 mg/kg, po by LC/MS/MS analysis; assay type: ADME, organism-based; design: time 2-24 hr, dose 30 mg/kg, route oral
[4] = AUC (0 to infinity) in monkey at 15 mg/kg, po after 24 hrs by LC/MS/MS analysis; assay type: ADME, organism-based, Macaca mulatta; design: time infinity, dose 15 mg/kg, route oral; details: rhesus monkey, plasma
[5] = Cmax in Sprague-Dawley rat liver at 10 mg/kg, iv by LC/MS/MS analysis; assay type: ADME, organism-based; design: dose 10 mg/kg, route intravenous
[6] = Apparent elimination half life in monkey at 5 mg/kg, po after 24 hrs by LC/MS/MS analysis; assay type: ADME, organism-based, Macaca mulatta; design: dose 5 mg/kg, route oral; details: rhesus monkey, in vivo
[7] = Cmax in Sprague-Dawley rat at 20 mg/kg, po after 24 hrs by LC/MS/MS analysis; assay type: ADME, organism-based; design: dose 20 mg/kg, route oral; details: in vivo

- EC50 [1]: 150 nM
- Cmax [2]: 2560 ng/mL
- AUC(0-t) [3]: 30200 ng·h/mL
- AUC(0-inf) [4]: 59200 ng·h/mL
- Cmax [5]: 13500 ng/mL
- half-life [6]: 24.6 h
- Cmax [7]: 1760 ng/mL
Compound: C/C=C/C[C@@H](C)[C@@H](O)[C@H]1C(=O)N[C@@H](CC)C(=O)N(C)C(SCCN(C)C)C(=O)N(C)[C@@H](CC(C)(C)O)C(=O)N[C@@H](C(C)C)C(=O)N(C)[C@@H](CC(C)C)C(=O)N[C@@H](C)C(=O)N[C@H](C)C(=O)N(C)[C@@H](CC(C)C)C(=O)N(C)[C@@H](CC(C)C)C(=O)N(C)[C@@H](C(C)C)C(=O)N1C (single isomer, unassigned) [SCY 635]
